# From US20080187512A1, “Treatment for spinal muscular atrophy” (Academia Sinica, priority 2007, published 2008)
# Read-outs that look alike come from different tables or passages of the source.
# Assays:
# [1] = system: P38 (pT180/pY182); assay: Signaling pathway screen in SMN2-NSC34 cells; format: cell-based, mouse
# [2] = system: Jak2 (pY1007/pY1008); assay: Signaling pathway screen in SMN2-NSC34 cells; format: cell-based, mouse; for Jak2 (pY1007/pY1008) cellular response: key: −: decreasing; +/−: no activation; +: slight activation; ++: minor activation; +++: significant activation
# Procedure: (§1) Western blot analysis. Cells treated by dsRNA, compounds or Stat5A1*6 transfected were detached by scraping, pelletting and rinsing in PBS. Cell pellets were collected after centrifugation and lysed on ice in modified RIPA buffer (50 mM Tris-HCl (pH7.4), 1% NP-40, 0.25% deoxycholic acid, 0.15M NaCl, 1 mM EDTA, 1 mM PMSF/NaF/sodium orthovanadate, and protease inhibitors cocktail (Roche, Mannheim, Germany) for 30 min. After centrifugation, the supernatants were collected and kept frozen at −20° C. Protein concentrations were determined by Bio-Rad protein assay method. For Western blot analysis, protein samples were boiled for 5 min and electrophoresed on 8% or 10% SDS-polyacrylamide gel in a 1× running buffer (25 mM Tris, 192 mM glycine, 3.4 mM SDS, pH 8.3) and subsequently electrotransferred to Polyvinylidene Fluoride tansfer membrane (Pall, Pensacola, Fla.) using a TE 22 mini-tank transfer unit (Amersham Biosciences, San Francisco, Calif.) at 35 volts overnight in transfer buffer (25 mM Tris, 192 mM glycine, 20% methanol, pH8.3). The blotting membranes were incubated in blocking solution (PBS, 5% non-fat milk, 0.2% Tween-20) for 1 hour at room temperature, and then incubated in the same solution with the primary antibody (human-specific SMN/1:1000; SMN/1:5000, Transduction Laboratories, Lexington, Ky.; phospho-Stat5a/b/1:1000, Cell signaling, Beverly, Mass.; phospho-Jak2/1:1000, Upstate, Lake Placid, N.Y.; Flag BioM2/1:1000, Sigma, St. Louis, MO; c-myc/1:200, Santa Cruz Biotech, Santa Cruz, Calif.; α-Tubilin/1:10000, Upstate, Lake Placid, N.Y., MO), overnight at 4° C. The membranes were washed and incubated in the blocking solution with the proper HRP-conjugated secondary antibody at 1/5000 dilution (Chemicon, Temecula, Calif.) for 1 hour at room temperature. After washing three times in PBS containing 0.1% Tween-20, the signals were visualized by autoradiography (Fuji Medical X-ray film, Fuji Photos, Tokyo) using enhanced chemi-luminescence (ECL detection system; Perkin-Elmer, Boston, Calif.). Western blot quantification was performed by scanning the auto-radiographs with a computerized densitometer. Signal intensities were determined by densitometry analysis (Fuji film LAS-1000 plus pictography) using the program Phoreticx 1D (Phoreticx International).
# (§2) Therefore, TSA, aclarubicin and sodium vanadate all induce the activation of Stat5A in motor neuron-like NSC34 cells.
# [3] = system: KAP; details: SMN2-NSC34 cells
# Procedure: as §1
# [4] = system: LAR; details: SMN2-NSC34 cells
# Procedure: as §1
# [5] = system: PTP1B; details: SMN2-NSC34 cells
# Procedure: as §1
# [6] = system: RPTPβ; details: SMN2-NSC34 cells
# Procedure: as §1
# [7] = system: NCK; details: SMN2-NSC34 cells
# Procedure: as §1
# [8] = system: PI3-Kinase; details: SMN2-NSC34 cells
# Procedure: as §1
# [9] = system: MKP2; details: SMN2-NSC34 cells
# Procedure: as §1
# [10] = system: ShcC; details: SMN2-NSC34 cells
# Procedure: as §1
# [11] = system: GRB2; details: SMN2-NSC34 cells
# Procedure: as §1
# [12] = system: RPTPα; details: SMN2-NSC34 cells
# Procedure: as §1
# [13] = system: GRB14; details: SMN2-NSC34 cells
# Procedure: as §1
# [14] = system: PTP1C/SHP1; details: SMN2-NSC34 cells
# Procedure: as §1
# [15] = system: Crk; details: SMN2-NSC34 cells
# Procedure: as §1
# [16] = system: SHC; details: SMN2-NSC34 cells
# Procedure: as §1
# [17] = system: JNK (pT183/pY185); assay: Signaling pathway screen in SMN2-NSC34 cells; format: cell-based, mouse
# [18] = system: Stat1 (pY701); assay: Signaling pathway screen in SMN2-NSC34 cells; format: cell-based, mouse
# [19] = system: SMN2; assay: SMN2 splicing pattern, semi-quantitative RT-PCR in SMA-like MEFs; format: cell-based, mouse; parameters: key to SMN2 splicing pattern MEF: −: no effect; +: effective; +++: most effective
# [20] = system: Stat3 (pY705); assay: Signaling pathway screen in SMN2-NSC34 cells; format: cell-based, mouse
# [21] = system: Stat5 (pT694); assay: Signaling pathway screen in SMN2-NSC34 cells; format: cell-based, mouse; parameters: Stat5 (pT694) cellular response: key: −: decreasing; +/−: no activation; +: slight activation; ++: minor activation; +++: significant activation
# Procedure: as §1, §2
substance,measurement,setting,value
Sodium vanadate,P38 (pT180/pY182) cellular response,[1]; 4 hrs,+/−
same,P38 (pT180/pY182) cellular response,[1]; 8 hrs,+
same,Jak2 (pY1007/pY1008) cellular response,[2],+ and ++
same,Jak2 activation,[2],found activated
same,KAP cellular response,[3]; 4 hrs,+/−
same,KAP cellular response,[3]; 8 hrs,−
same,LAR cellular response,[4]; 4 hrs,+/−
same,LAR cellular response,[4]; 8 hrs,+/−
same,PTP1B cellular response,[5]; 4 hrs,+/−
same,PTP1B cellular response,[5]; 8 hrs,−
same,RPTPβ cellular response,[6]; 4 hrs,+/−
same,RPTPβ cellular response,[6]; 8 hrs,+/−
same,NCK cellular response,[7]; 4 hrs,+/−
same,NCK cellular response,[7]; 8 hrs,+/−
same,PI3-Kinase cellular response,[8]; 4 hrs,+/−
same,PI3-Kinase cellular response,[8]; 8 hrs,+/−
same,MKP2 cellular response,[9]; 4 hrs,−
same,MKP2 cellular response,[9]; 8 hrs,−
same,ShcC cellular response,[10]; 4 hrs,+/−
same,ShcC cellular response,[10]; 8 hrs,+/−
same,GRB2 cellular response,[11]; 4 hrs,+/−
same,GRB2 cellular response,[11]; 8 hrs,+/−
same,RPTPα cellular response,[12]; 4 hrs,+/−
same,RPTPα cellular response,[12]; 8 hrs,−
same,GRB14 cellular response,[13]; 4 hrs,+/−
same,GRB14 cellular response,[13]; 8 hrs,+/−
same,PTP1C/SHP1 cellular response,[14]; 4 hrs,+/−
same,PTP1C/SHP1 cellular response,[14]; 8 hrs,−
same,Crk cellular response,[15]; 4 hrs,+/−
same,Crk cellular response,[15]; 8 hrs,+/−
same,SHC cellular response,[16]; 4 hrs,+/−
same,SHC cellular response,[16]; 8 hrs,+/−
same,JNK (pT183/pY185) cellular response,[17]; 4 hrs,+/−
same,JNK (pT183/pY185) cellular response,[17]; 8 hrs,+
same,Stat1 (pY701) cellular response,[18]; 4 hrs,−
same,Stat1 (pY701) cellular response,[18]; 8 hrs,+/−
same,SMN2 splicing pattern MEF,[19],+++
same,influence on SMN2 expression,[19],found to influence SMN2 expression
same,Stat3 (pY705) cellular response,[20]; 4 hrs,+
same,Stat3 (pY705) cellular response,[20]; 8 hrs,++
same,Stat5 (pT694) cellular response,[21],++ and +++
same,Stat5 phosphorylation status at 8 hours,[21],remained activated
same,phosphorylation level of Stat5 increased compared to control cells,[21],about 6 fold
